{"source": "patent US11506670B2", "about": "“Method of genome-wide direct identification of electrophile-sensing targets” (Cornell University, priority 2018, dated 2022)", "tested_on": "ten HaloTag proteins in HEK-293 cells", "experiment": "T-REX gel-based screen of Halo ORF clones for HNE-sensitive targets", "format": "cell-based", "experimental": "Individual wells in a 48-well plate contained live HEK-293 cells ectopically expressing a unique HaloTagged gene of interest. The cells were subjected to T-REX™ delivery-HNE(alkyne) targeting on demand. Post cell lysis, all samples were treated with TEV protease and subsequently subjected to Click coupling reaction with Cy5 azide. Probing with Halo antibody allowed evaluation of expression level (and/or solubility under the lysis conditions used). […] For example, RRM1, PRKCD, p53R2, and Keap1 (positive control) had roughly similar expression levels. Only RRM1 and Keap1 were HNE-sensitive although all four targets have been previously identified to be potentially redox/HNE-sensitive (Holmstrom et al., “Cellular Mechanisms and Physiological Consequences of Redox-Dependent Signalling,” Nat. Rev. Mol. Cell. Biol. 15:411-21 (2014); Jacobs et al., “Systems Analysis of Protein Modification and Cellular Responses Induced by Electrophile Stress,” Acc. Chem. Res. 43:673-83 (2010); Delmastro-Greenwood et al., “Redox-Dependent Anti-Inflammatory Signaling Actions of Unsaturated Fatty Acids,” Annu. Rev. Physiol. 76:79-105 (2014); Crunkhorn S., “Deal Watch: Abbott Boosts Investment in NRF2 Activators for Reducing Oxidative Stress,” Nat. Rev. Drug Discov. […]"}
{"compound": "CCCCCC(O)/C=C/C=O", "note": "(stereo not shown) [HNE, 4-hydroxynonenal]", "values": [{"measurement": "proteins modified by HNE in the screen besides positive control Keap1", "result": "RRM1 and HSPB7"}]}
